One experiment concerns Glutamate NMDA receptor. As to the kind of experiment: Displacement of [3H]MK801 from NMDA receptor in rat brain neuronal membrane. The format is cell membranes.
Details: not given; call rule not given here
In general terms: In a radioligand displacement assay an active substance lowers the binding of a labelled ligand.
Consider `COc1ccc2c(c1)C13CCCC[C@@H]1C(C2)NCC3` (single isomer, unassigned), for which the Ki result is listed as “Not Active”.

Still in this experiment, the particulars now being: read-out: Ki.
Take `N[C@@H](CC1CCCCC1)C1CCCCC1`: the Ki came to 271 µM.
The same measure, in the same setting: with `COC(=O)[C@H](N)c1ccccc1` the figure was 1370 µM; with `CN[C@]1(c2ccccc2Cl)CCCCC1=O` [ESKETAMINE], 0.96 µM.
Same read-out and setting: with `NCCc1ccccc1` [PHENETHYLAMINE] the figure was 753 µM; with `COc1ccc2c(c1)[C@]13CCCC[C@@H]1[C@H](C2)NCC3`, 1.7 µM.
The same measure, in the same setting: in the case of `N[C@@H](c1ccccc1)[C@H](O)c1ccccc1` it was 142 µM.
On to `N[C@H](CC1CCCCC1)C1CCCCC1`, for which the Ki is 138 µM.
The same measure, in the same setting: in the case of `N[C@H](Cc1ccccn1)c1ccccc1` it was 84 µM; in that of `NCC(c1ccccc1)c1ccccc1`, 145 µM; in that of `N[C@H](c1ccccc1)[C@H](N)c1ccccc1`, 4.12 µM.
On to `C[C@@](N)(Cc1ccccc1)c1ccccc1`, for which the Ki turned out to be 8.08 µM.
The same measure, in the same setting: in the case of `N[C@H](c1ccccc1)[C@@H](O)c1ccccc1` it was 15.7 µM; in that of `C[C@](N)(Cc1ccccc1)c1ccccc1`, 0.79 µM; in that of `N[C@H](Cc1ccccc1)c1ccccc1`, 25.1 µM.
In the case of `C[C@H](N)c1ccccc1`, the Ki was 622 µM.
Still for that read-out and setting: in the case of `N[C@@H]1C[C@H]1c1ccccc1.N[C@H]1C[C@@H]1c1ccccc1` [TRANYLCYPROMINE] it was 544 µM; in that of `c1ccc(C[C@H](c2ccccc2)N2CCCCC2)cc1`, 5.25 µM.
In the case of `N[C@H]1C[C@@H]1c1ccccc1` [(+)-TRANYLCYPROMINE], the Ki is 269 µM.
On to `C[C@H](N)Cc1ccccc1` [DEXTROAMPHETAMINE], for which the Ki was determined as 300 µM.
Regarding `COC(=O)[C@@H](N)c1ccccc1`, the Ki turned out to be 1980 µM.
Regarding `N[C@@]1(c2ccccc2Cl)CCCCC1=O`, the Ki was determined as 55 µM.
On the same count and under the same terms, with `CN[C@@]1(c2ccccc2Cl)CCCCC1=O` the figure was 5.68 µM; with `NCc1ccccc1` [BENZYLAMINE], 1060 µM; with `C[C@@H](N)c1ccccc1`, 659 µM.
`N[C@]1(c2ccccc2Cl)CCCCC1=O`: the Ki stood at 4.18 µM.
With `N[C@@H](Cc1ccccn1)c1ccccc1` [LANICEMINE], the Ki turned out to be 14 µM.
With `C[C@@H](N)Cc1ccccc1` [LEVAMFETAMINE], the Ki was 625 µM.
Consider `N[C@@H](c1ccccc1)[C@@H](N)c1ccccc1`, for which the Ki came to 51 µM.
The same measure, in the same setting: with `NC(c1ccccc1)c1ccccc1` [AMINODIPHENYLMETHANE] the figure was 64 µM.
For the molecule `N[C@@H](Cc1ccccc1)c1ccccc1`, the Ki came out at 0.7 µM.
Same read-out and setting: with `c1ccc(C[C@@H](c2ccccc2)N2CCCCC2)cc1` the figure was 0.12 µM.
For the molecule `c1ccc(C2(N3CCCCC3)CCCCC2)cc1` [PHENCYCLIDINE], the Ki stood at 0.27 µM.

The Ki is a dissociation constant, usually derived from enzyme kinetics or from competition with a known ligand.

The values are drawn from ChEMBL document CHEMBL1138618, “NMDA receptor affinities of 1,2-diphenylethylamine and 1-(1,2-diphenylethyl)piperidine enantiomers and of related compounds” (Bioorg Med Chem, 2009).
